Laboratory results published in ChEMBL document CHEMBL4507307 (2021).
Each block holds one molecule with its values, some of them ahead of it. The source made the active and inactive calls. The calls are words filed in the database; no cut-off is given here.

Experiments:
[1] = molecular target: Histamine H2 receptor (Homo sapiens, UniProt P25021); details: Compound concentration 10.0 uM
[2] = molecular target: Dual specificity protein kinase CLK4 (Homo sapiens, UniProt Q9HAZ1); test: NanoBRET (SGC Frankfurt) (CLK4)
[3] = molecular target: Alpha-1D adrenergic receptor (Homo sapiens) (UniProt P25100); details: Compound concentration 10.0 uM
[4] = species on record: Rattus norvegicus; details: Compound concentration 10.0 uM
[5] = molecular target: 5-hydroxytryptamine receptor 5A (Homo sapiens, UniProt P47898); test: GPCRScan assay: inhibition of 5-HT5A; parameters: radioligand conc. used [nm] 2.0 - 3.3, parental cells Flp-In CHO
[6] = molecular target: Alpha-2A adrenergic receptor (Homo sapiens, UniProt P08913); test: GPCRScan assay: inhibition of Alpha2A; parameters: radioligand conc. used [nm] 1.0 – 3.0, parental cells stable MDCK
[7] = molecular target: Mu-type opioid receptor (Homo sapiens, UniProt P35372); test: GPCRScan assay: inhibition of MOR; parameters: radioligand conc. used [nm] 1.0 – 2.0, parental cells stable HEK
[8] = molecular target: 5-hydroxytryptamine receptor 1E (Homo sapiens, UniProt P28566); details: Compound concentration 10.0 uM
[9] = molecular target: Alpha-2B adrenergic receptor (Homo sapiens, UniProt P18089); test: GPCRScan assay: inhibition of Alpha2B; parameters: radioligand conc. used [nm] 1.5 – 2.0, parental cells HEKT
[10] = molecular target: 5-hydroxytryptamine receptor 2A (Homo sapiens, UniProt P28223); test: GPCRScan assay: inhibition of 5-HT2A; parameters: radioligand conc. used [nm] 1.2 – 2.4, parental cells HEKT
[11] = molecular target: D(3) dopamine receptor (Homo sapiens, UniProt P35462); test: GPCRScan assay: inhibition of D3; parameters: radioligand conc. used [nm] 0.5 – 1.8, parental cells HEKT
[12] = molecular target: Muscarinic acetylcholine receptor M1 (Homo sapiens) (UniProt P11229); details: Compound concentration 10.0 uM
[13] = molecular target: D(2) dopamine receptor (Homo sapiens, UniProt P14416); test: GPCRScan assay: inhibition of D2; parameters: radioligand conc. used [nm] 0.4 – 1.0, parental cells stable fibroblast
[14] = molecular target: Alpha-1A adrenergic receptor (Homo sapiens, UniProt P35348); test: GPCRScan assay: inhibition of Alpha1A; parameters: radioligand conc. used [nm] 0.2 - 1.0, parental cells stable HEK
[15] = molecular target: Alpha-1B adrenergic receptor (Homo sapiens, UniProt P35368); test: GPCRScan assay: inhibition of Alpha1B; parameters: radioligand conc. used [nm] 0.3 – 1.0, parental cells stable HEK
[16] = molecular target: Kappa-type opioid receptor (Homo sapiens, UniProt P41145); test: GPCRScan assay: inhibition of KOR; parameters: radioligand conc. used [nm] 0.6 – 1.2, parental cells stable HEK
[17] = molecular target: Aurora kinase B (Homo sapiens) (UniProt Q96GD4); test: AURKB (Aurora B) Kinase activity screen
[18] = molecular target: Dual specificity tyrosine-phosphorylation-regulated kinase 4 (Homo sapiens) (UniProt Q9NR20); test: DYRK4 Kinase activity screen
[19] = molecular target: Protein kinase C theta type (Homo sapiens) (UniProt Q04759); test: PRKCQ (PKC theta) Kinase activity screen
[20] = molecular target: Dual specificity tyrosine-phosphorylation-regulated kinase 1A (Homo sapiens, UniProt Q13627); test: DYRK1A Kinase activity screen
[21] = molecular target: Homeodomain-interacting protein kinase 2 (Homo sapiens) (UniProt Q9H2X6); test: HIPK2 Kinase activity screen
[22] = molecular target: Mitogen-activated protein kinase 1 (Homo sapiens) (UniProt P28482); test: MAPK1 (ERK2) Kinase activity screen
[23] = molecular target: Mitogen-activated protein kinase 14 (Homo sapiens) (UniProt Q16539); test: MAPK14 (p38 alpha) Kinase activity screen
[24] = molecular target: AMP-activated protein kinase (AMPK) alpha-1/beta-1/gamma-1 (Homo sapiens) (UniProt P54619+Q9Y478+Q13131); test: AMPK A1/B1/G1 Kinase activity screen; assay type: protein-complex assay
[25] = molecular target: Proto-oncogene tyrosine-protein kinase receptor Ret (Homo sapiens) (UniProt P07949); test: RET Kinase activity screen
[26] = molecular target: Serine/threonine-protein kinase Nek2 (Homo sapiens) (UniProt P51955); test: NEK2 Kinase activity screen
[27] = molecular target: Dual specificity tyrosine-phosphorylation-regulated kinase 1B (Homo sapiens, UniProt Q9Y463); test: DYRK1B Kinase activity screen
[28] = molecular target: Mitogen-activated protein kinase 8 (Homo sapiens) (UniProt P45983); test: MAPK8 (JNK1) Kinase activity screen
[29] = molecular target: Cyclin-dependent kinase 1/cyclin B (Homo sapiens) (UniProt P06493+P14635+Q8WWL7+O95067); test: CDK1/cyclin B Kinase activity screen; assay type: protein-complex assay
[30] = molecular target: Cyclin-dependent kinase 5/CDK5 activator 1 (Homo sapiens) (UniProt Q00535+Q15078); test: CDK5/p35 Kinase activity screen; assay type: protein-complex assay
[31] = molecular target: Interleukin-1 receptor-associated kinase 4 (Homo sapiens) (UniProt Q9NWZ3); test: IRAK4 Kinase activity screen
[32] = molecular target: Dual specificity tyrosine-phosphorylation-regulated kinase 3 (Homo sapiens) (UniProt O43781); test: DYRK3 Kinase activity screen
[33] = molecular target: CDK2/Cyclin A2 (Homo sapiens) (UniProt P24941+P20248); test: CDK2/cyclin A Kinase activity screen; assay type: protein-complex assay
[34] = molecular target: Casein kinase I isoform alpha (Homo sapiens) (UniProt P48729); test: CSNK1A1 (CK1 alpha 1) Kinase activity screen
[35] = molecular target: Homeodomain-interacting protein kinase 1 (Homo sapiens) (UniProt Q86Z02); test: HIPK1 (Myak) Kinase activity screen
[36] = molecular target: Ribosomal protein S6 kinase beta-1 (Homo sapiens) (UniProt P23443); test: RPS6KB1 (p70S6K) Kinase activity screen
[37] = molecular target: Protein kinase C alpha type (Homo sapiens) (UniProt P17252); test: PRKCA (PKC alpha) Kinase activity screen
[38] = molecular target: cAMP-dependent protein kinase catalytic subunit alpha (Homo sapiens) (UniProt P17612); test: PRKACA (PKA) Kinase activity screen
[39] = molecular target: Tyrosine-protein kinase JAK2 (Homo sapiens) (UniProt O60674); test: JAK2 Kinase activity screen
[40] = molecular target: Dual specificity protein kinase CLK3 (Homo sapiens) (UniProt P49761); test: CLK3 Kinase activity screen
[41] = Compound concentration 0.123 uM

5-hydroxytryptamine receptor 5A, sequence (P47898 whole entry): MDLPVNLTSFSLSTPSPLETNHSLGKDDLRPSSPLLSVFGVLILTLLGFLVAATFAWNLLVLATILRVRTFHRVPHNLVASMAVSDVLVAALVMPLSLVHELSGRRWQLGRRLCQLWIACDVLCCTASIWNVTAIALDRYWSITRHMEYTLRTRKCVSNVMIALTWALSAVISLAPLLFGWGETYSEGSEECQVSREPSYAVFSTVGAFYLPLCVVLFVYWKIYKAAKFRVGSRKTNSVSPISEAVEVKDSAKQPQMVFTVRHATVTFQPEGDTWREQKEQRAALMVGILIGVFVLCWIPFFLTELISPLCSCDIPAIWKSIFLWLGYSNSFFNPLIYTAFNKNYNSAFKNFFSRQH
Ribosomal protein S6 kinase beta-1 (Homo sapiens), sequence (P23443 whole entry, looked up): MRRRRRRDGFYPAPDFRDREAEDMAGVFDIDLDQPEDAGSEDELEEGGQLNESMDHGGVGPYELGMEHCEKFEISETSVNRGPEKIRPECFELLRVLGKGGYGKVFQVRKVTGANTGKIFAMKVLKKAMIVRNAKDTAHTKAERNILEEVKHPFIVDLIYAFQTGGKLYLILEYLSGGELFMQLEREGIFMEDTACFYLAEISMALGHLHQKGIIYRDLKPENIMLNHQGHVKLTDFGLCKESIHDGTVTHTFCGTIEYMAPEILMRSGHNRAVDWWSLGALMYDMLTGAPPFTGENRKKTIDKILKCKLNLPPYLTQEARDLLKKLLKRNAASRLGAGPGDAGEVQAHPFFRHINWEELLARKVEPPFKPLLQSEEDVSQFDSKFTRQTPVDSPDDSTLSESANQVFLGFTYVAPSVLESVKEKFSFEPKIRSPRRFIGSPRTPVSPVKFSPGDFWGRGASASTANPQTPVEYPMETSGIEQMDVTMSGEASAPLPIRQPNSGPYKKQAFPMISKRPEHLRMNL
Dual specificity tyrosine-phosphorylation-regulated kinase 1B, sequence (Q9Y463 whole entry, looked up): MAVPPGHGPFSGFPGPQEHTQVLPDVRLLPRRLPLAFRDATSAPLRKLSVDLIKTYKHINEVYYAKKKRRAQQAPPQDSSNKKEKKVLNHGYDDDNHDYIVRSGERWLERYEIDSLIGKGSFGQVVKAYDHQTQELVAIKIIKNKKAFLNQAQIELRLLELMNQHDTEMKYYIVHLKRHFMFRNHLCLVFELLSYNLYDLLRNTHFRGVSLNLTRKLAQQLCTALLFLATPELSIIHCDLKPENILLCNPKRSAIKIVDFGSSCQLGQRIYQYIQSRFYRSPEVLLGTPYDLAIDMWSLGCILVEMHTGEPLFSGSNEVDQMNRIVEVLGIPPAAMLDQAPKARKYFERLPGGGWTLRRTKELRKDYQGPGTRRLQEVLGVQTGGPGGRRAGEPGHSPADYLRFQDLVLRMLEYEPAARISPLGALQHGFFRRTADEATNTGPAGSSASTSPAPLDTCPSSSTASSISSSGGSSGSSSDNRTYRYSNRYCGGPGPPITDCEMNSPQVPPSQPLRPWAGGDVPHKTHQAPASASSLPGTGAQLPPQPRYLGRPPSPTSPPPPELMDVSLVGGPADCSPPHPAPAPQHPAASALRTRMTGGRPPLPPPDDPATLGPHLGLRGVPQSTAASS
Homeodomain-interacting protein kinase 1 (Homo sapiens), sequence (Q86Z02 whole entry, looked up): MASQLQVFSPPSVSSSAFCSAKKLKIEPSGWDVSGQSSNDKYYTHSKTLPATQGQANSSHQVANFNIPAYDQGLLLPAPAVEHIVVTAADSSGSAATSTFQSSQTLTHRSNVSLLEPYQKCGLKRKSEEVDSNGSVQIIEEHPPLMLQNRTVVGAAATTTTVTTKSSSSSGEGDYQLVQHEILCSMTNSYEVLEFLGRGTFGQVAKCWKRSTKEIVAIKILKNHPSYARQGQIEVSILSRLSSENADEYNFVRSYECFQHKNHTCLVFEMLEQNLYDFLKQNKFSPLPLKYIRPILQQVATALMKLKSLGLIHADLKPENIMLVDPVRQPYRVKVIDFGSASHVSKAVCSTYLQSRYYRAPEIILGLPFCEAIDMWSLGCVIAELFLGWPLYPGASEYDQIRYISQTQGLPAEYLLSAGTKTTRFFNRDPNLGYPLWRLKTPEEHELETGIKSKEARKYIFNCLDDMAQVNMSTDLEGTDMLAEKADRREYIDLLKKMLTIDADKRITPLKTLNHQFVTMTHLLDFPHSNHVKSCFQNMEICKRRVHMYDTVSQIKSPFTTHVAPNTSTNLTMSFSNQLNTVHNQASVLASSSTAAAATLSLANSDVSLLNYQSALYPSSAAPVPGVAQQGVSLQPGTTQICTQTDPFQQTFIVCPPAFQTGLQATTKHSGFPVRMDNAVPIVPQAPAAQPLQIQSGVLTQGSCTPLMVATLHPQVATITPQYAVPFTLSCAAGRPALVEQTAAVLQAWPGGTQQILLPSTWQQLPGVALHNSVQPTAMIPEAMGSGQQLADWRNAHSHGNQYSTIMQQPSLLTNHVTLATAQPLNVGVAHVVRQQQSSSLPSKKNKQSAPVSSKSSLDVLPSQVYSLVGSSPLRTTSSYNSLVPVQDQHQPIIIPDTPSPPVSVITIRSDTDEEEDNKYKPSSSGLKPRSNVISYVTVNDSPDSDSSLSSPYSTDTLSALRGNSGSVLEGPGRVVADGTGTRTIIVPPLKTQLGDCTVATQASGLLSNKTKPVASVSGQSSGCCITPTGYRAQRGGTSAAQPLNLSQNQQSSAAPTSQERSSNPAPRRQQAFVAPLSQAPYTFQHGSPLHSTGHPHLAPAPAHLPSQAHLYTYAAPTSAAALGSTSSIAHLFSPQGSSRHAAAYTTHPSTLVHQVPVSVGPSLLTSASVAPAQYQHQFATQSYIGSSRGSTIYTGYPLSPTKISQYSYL
Casein kinase I isoform alpha (Homo sapiens), sequence (P48729 2-337 limits assumed): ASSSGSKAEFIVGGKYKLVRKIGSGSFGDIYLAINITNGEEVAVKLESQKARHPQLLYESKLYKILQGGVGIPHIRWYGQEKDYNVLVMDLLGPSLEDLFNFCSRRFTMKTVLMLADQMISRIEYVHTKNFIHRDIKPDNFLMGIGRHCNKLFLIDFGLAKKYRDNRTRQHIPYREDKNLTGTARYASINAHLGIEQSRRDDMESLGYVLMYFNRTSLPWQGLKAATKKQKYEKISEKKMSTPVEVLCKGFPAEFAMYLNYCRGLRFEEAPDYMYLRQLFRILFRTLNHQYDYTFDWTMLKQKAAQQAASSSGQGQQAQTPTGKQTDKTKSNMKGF
Proto-oncogene tyrosine-protein kinase receptor Ret (Homo sapiens), sequence (P07949 whole entry): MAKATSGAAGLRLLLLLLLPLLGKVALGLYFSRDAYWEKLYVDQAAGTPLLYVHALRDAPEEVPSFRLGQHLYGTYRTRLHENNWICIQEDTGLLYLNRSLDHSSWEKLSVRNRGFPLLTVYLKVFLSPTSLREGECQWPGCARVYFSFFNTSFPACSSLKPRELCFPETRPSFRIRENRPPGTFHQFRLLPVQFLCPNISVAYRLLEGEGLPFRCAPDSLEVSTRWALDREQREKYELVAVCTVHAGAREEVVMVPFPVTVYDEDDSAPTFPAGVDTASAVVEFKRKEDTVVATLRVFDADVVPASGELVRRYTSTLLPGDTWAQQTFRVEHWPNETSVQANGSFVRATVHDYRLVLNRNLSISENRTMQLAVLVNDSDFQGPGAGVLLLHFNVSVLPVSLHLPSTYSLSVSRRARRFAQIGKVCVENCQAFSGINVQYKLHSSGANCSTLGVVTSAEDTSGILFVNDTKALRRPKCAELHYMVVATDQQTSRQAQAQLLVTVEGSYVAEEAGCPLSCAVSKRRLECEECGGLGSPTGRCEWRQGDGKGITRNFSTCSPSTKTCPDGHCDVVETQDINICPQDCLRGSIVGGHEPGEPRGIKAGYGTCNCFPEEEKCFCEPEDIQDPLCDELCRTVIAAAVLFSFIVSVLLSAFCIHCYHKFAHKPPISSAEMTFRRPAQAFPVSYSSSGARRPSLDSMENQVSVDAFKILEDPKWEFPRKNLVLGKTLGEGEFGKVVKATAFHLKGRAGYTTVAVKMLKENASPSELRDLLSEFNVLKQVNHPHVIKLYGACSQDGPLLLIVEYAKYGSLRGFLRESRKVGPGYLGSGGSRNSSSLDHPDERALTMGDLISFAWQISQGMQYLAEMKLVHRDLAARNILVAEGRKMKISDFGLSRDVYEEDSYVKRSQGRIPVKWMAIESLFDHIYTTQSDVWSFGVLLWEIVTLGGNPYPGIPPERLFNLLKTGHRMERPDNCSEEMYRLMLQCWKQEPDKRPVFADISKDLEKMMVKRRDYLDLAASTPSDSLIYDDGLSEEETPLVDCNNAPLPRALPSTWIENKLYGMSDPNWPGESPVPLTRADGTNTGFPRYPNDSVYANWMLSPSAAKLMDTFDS
Histamine H2 receptor, sequence (P25021 whole entry): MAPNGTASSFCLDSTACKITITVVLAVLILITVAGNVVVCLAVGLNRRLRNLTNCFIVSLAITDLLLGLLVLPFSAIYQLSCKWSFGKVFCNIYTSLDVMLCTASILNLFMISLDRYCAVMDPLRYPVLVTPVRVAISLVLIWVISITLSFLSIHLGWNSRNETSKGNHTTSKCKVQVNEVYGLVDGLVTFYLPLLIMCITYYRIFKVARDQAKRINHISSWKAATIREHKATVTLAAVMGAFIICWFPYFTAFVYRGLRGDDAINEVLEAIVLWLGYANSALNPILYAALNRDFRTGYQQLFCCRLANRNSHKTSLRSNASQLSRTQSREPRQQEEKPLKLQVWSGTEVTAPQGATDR
Alpha-1A adrenergic receptor, sequence (P35348 whole entry): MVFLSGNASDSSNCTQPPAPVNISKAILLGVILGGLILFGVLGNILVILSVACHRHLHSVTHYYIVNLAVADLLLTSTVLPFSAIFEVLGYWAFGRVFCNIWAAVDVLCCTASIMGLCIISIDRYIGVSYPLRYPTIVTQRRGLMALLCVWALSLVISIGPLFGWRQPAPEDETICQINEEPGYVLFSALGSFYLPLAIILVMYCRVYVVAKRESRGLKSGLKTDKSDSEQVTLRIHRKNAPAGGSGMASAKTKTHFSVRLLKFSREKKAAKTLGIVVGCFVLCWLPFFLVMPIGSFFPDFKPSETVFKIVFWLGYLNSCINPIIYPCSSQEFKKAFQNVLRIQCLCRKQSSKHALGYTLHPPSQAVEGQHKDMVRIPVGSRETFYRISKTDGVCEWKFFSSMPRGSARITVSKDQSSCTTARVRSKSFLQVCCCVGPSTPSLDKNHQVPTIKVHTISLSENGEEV

inhibition [1]: 86.8% | IC50 [2]: > 10000 nM (not active) | inhibition [3]: 57% | inhibition [4]: -6.1% | Ki ([5]; read-out: Ki): 2490 nM | Ki ([5]; read-out: pKi (converted)): 2240 nM | Ki [6]: 2660 nM | Ki [7]: 4020 nM | inhibition [8]: 60.5% | Ki ([9]; read-out: Ki): 1650 nM | Ki ([9]; read-out: pKi (converted)): 1620 nM | Ki ([10]; read-out: Ki): 1530 nM | Ki ([10]; read-out: pKi (converted)): 1320 nM | Ki ([11]; read-out: Ki): 2250 nM | Ki ([11]; read-out: pKi (converted)): 1910 nM | inhibition [12]: 68.3% | Ki ([13]; read-out: Ki): 2750 nM | Ki ([13]; read-out: pKi (converted)): 2340 nM | Ki ([14]; read-out: Ki): 1390 nM | Ki ([14]; read-out: pKi (converted)): 1350 nM | Ki ([15]; read-out: Ki): 5530 nM | Ki ([15]; read-out: pKi (converted)): 5370 nM | Ki ([16]; read-out: Ki): 990 nM | Ki ([16]; read-out: pKi (converted)): 977 nM
Compound: CN1CCN(C(=O)C(C)(C)c2ccc(C(=O)Nc3cn4cc(-c5cc(C(C)(C)C)cc(C(C)(C)C)c5)ccc4n3)cc2)CC1 [T3-CLK-N]

inhibition [1]: 19.4% | IC50 [2]: 1.98 nM (active) | inhibition ([17]; Compound concentration 0.1 uM): 6.77% | inhibition ([17]; Compound concentration 1.0 uM): 16.1% | inhibition [18, 41]: -8.38% | inhibition ([18]; Compound concentration 1.11 uM): -2.87% | inhibition ([19]; Compound concentration 0.1 uM): 5.46% | inhibition ([19]; Compound concentration 1.0 uM): 4.24% | inhibition [20, 41]: 74.2% | inhibition ([20]; Compound concentration 1.11 uM): 97.5% | inhibition ([21]; Compound concentration 0.1 uM): -3.6% | inhibition ([21]; Compound concentration 1.0 uM): -1.82% | inhibition ([22]; Compound concentration 0.1 uM): 2.74% | inhibition ([22]; Compound concentration 1.0 uM): 4.01% | inhibition ([23]; Compound concentration 0.1 uM): 4.88% | inhibition ([23]; Compound concentration 1.0 uM): 6.39% | inhibition ([24]; Compound concentration 0.1 uM): -2% | inhibition ([24]; Compound concentration 1.0 uM): 0.493% | inhibition ([25]; Compound concentration 0.1 uM): -1.05% | inhibition ([25]; Compound concentration 1.0 uM): -2.43% | inhibition ([26]; Compound concentration 0.1 uM): 11.9% | inhibition ([26]; Compound concentration 1.0 uM): 24.3% | inhibition [27, 41]: 62.7% | inhibition ([27]; Compound concentration 1.11 uM): 94.1% | inhibition [8]: -1.52% | inhibition ([28]; Compound concentration 0.1 uM): 5.45% | inhibition ([28]; Compound concentration 1.0 uM): 2.56% | inhibition ([29]; Compound concentration 0.1 uM): 7.95% | inhibition ([29]; Compound concentration 1.0 uM): 7.1% | inhibition ([30]; Compound concentration 0.1 uM): 1.85% | inhibition ([30]; Compound concentration 1.0 uM): -1.12% | inhibition ([31]; Compound concentration 0.1 uM): 25.3% | inhibition ([31]; Compound concentration 1.0 uM): 42.4% | inhibition [32, 41]: -1.82% | inhibition ([32]; Compound concentration 1.11 uM): 3.7% | inhibition ([33]; Compound concentration 0.1 uM): 0.334% | inhibition ([33]; Compound concentration 1.0 uM): 3.32% | inhibition ([34]; Compound concentration 0.1 uM): -3.75% | inhibition ([34]; Compound concentration 1.0 uM): -2.73% | inhibition ([35]; Compound concentration 0.1 uM): -0.71% | inhibition ([35]; Compound concentration 1.0 uM): 2.69% | inhibition ([36]; Compound concentration 0.1 uM): 2.21% | inhibition ([36]; Compound concentration 1.0 uM): 0.698% | inhibition ([37]; Compound concentration 0.1 uM): 4.38% | inhibition ([37]; Compound concentration 1.0 uM): 3.75% | inhibition ([38]; Compound concentration 0.1 uM): -1.57% | inhibition ([38]; Compound concentration 1.0 uM): 3.62% | inhibition ([39]; Compound concentration 0.1 uM): -7.35% | inhibition ([39]; Compound concentration 1.0 uM): -6.29% | inhibition [40, 41]: 38.3% | inhibition ([40]; Compound concentration 1.11 uM): 88.7%
Compound: CN1CCN(C(=O)C(C)(C)c2ccc(C(=O)Nc3cn4cc(-c5ccncc5)ccc4n3)cc2)CC1 [T3-CLK]
